Legend:
xMuLV [1] = test: Concentration study, lowest concentration to inactivate virus; format: cell-based, xenotropic murine leukemia virus; conditions: 15° C., 30-minute incubation
PRV = format: cell-based, pseudorabies herpes virus
[2] = as indicated by the Hampton Kit; cited from earlier work
xMuLV [3] = test: Temperature-dependent study, TCID50 LRV in host cell culture fluid matrices; format: cell-based, xenotropic murine leukemia virus; conditions: for LRV BiTE ® / LRV fusion protein / LRV mAb: 30 minutes, 5× CMC
xMuLV [4] = test: Kinetic study of detergents, TCID50 LRV in host cell culture fluid matrices; format: cell-based, xenotropic murine leukemia virus
[5] = Turbidity of detergent spiked HCCF; format: physicochemical; conditions: HCCF spiked at five times CMC, room temperature 5 days and 2-8° C. 7 days
Description: Determination of turbidity was used to measure the stability of detergent spiked samples. Increased turbidity of the sample would reflect a precipitation of the protein molecule. 100 mL of harvested cell culture fluid (HCCF) collected from cultures of each molecule were subjected to four conditions: HCCF containing no detergent (control), APO128, APO129 and Triton X-100. The detergents were spiked at five times the detergent's critical micelle concentration (CMC) values, Triton-X: […] Two sample sets were generated for each molecule; one set was kept at room temperature for 5 days. The second set was kept at 2-8° C. for 7 days. The turbidity of each sample was measured using a turbidimeter (Hach Turbidime[…] 46500-00, Loveland, CO) on days 0, 1, 2, 5, and 7.

xMuLV [6] = format: cell-based, xenotropic murine leukemia virus; conditions: initial screen, 10× CMC or 10% w/v, 30 minutes, 15° C., 5% virus spike, PG4 cells
MMV = test: Concentration study, lowest concentration to inactivate virus; format: cell-based, mouse minute virus

Substance: Polyoxyethylene(9)dodecyl ether [Anapoe C12E9]
- Cytopathic effects (CPE) at 2.5×CMC (xMuLV [1]): showed cytopathic effects (CPE)
- Cytopathic effects (CPE) at 2.5×CMC (PRV): showed cytopathic effects (CPE)
- CMC [2]: 0.05 mM
- LRV BiTE ® (xMuLV [3]; 5° C.): ≥3.84 ± 0.33
- LRV fusion protein (xMuLV [3]; 5° C.): ≥4.19 ± 0.25
- LRV mAb (xMuLV [3]; 5° C.): ≥3.91 ± 0.30
- LRV BiTE ® (xMuLV [3]; 15° C.): ≥3.91 ± 0.43
- LRV fusion protein (xMuLV [3]; 15° C.): ≥4.32 ± 0.36
- LRV mAb (xMuLV [3]; 15° C.): ≥4.23 ± 0.38
- Viral inactivation in the presence of therapeutic modalities (xMuLV [3]; between 30 seconds and 30 minutes, temperatures as low as 5° C. and 15° C.): complete viral inactivation
- Inactivation at 30 minutes at both 5° C. and 15° C. (xMuLV [3]; mAb, BiTE ®, fusion protein matrices): complete inactivation
- LRV 30 s (xMuLV [4]; BiTE ® #1, 15° C.): 2.61 ± 0.68
- LRV 10 min (xMuLV [4]; BiTE ® #1, 15° C.): ≥2.91 ± 0.43
- LRV 30 min (xMuLV [4]; BiTE ® #1, 15° C.): ≥2.91 ± 0.43
- Time to complete inactivation of xMuLV (xMuLV [4]; BiTE® #1): ≤ 10 min
- Time to complete clearance of xMuLV (xMuLV [4]; all three therapeutic modalities): ≤ 10 min
- Time to complete inactivation of xMuLV (xMuLV [4]; fusion protein #1): ≤ 10 min
- LRV 30 s (xMuLV [4]; fusion protein #1, 15° C.): 2.56 ± 0.60
- LRV 10 min (xMuLV [4]; fusion protein #1, 15° C.): ≥3.32 ± 0.36
- LRV 30 min (xMuLV [4]; fusion protein #1, 15° C.): ≥3.32 ± 0.36
- Time to complete inactivation of xMuLV (xMuLV [4]; mAb #1): 0.5 min
- LRV 30 s (xMuLV [4]; mAb #1, 15° C.): ≥3.23 ± 0.00
- LRV 10 min (xMuLV [4]; mAb #1, 15° C.): ≥3.23 ± 0.00
- LRV 30 min (xMuLV [4]; mAb #1, 15° C.): ≥3.23 ± 0.00
- Precipitation of protein modalities (turbidity) [5]: none of the detergents tested caused precipitation
- Viral inactivation towards xMuLV (CPE) (xMuLV [6]): robustly inactivate the virus
- Cytopathic effects (CPE) at 2.5×CMC (MMV): showed cytopathic effects (CPE)
